According to patent publication US20130029981A1, “COMPOUNDS, COMPOSITIONS, AND METHODS FOR CONTROLLING BIOFILMS” (Katholieke Universiteit Leuven, priority 2009, published 2013):
Read-outs that look alike come from different tables or passages of the source.

Tests used:
S. Typhimurium ATCC14028 = assay: Static peg assay for prevention of biofilm formation (Calgary device, crystal violet); assay type: cell-based, Salmonella Typhimurium
In short: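 Calgary 96-peg device, ca. 10^6 cells of ATCC14028 per well in TSB 1/20 for 24 h at 25° C (or 48 h at 16° C, medium and compound renewed at 24 h), or in CFA broth for 24 h at 37° C, static, with two-fold compound dilutions. Crystal violet stain, acetic acid extraction, OD570. IC50 from 2–3 independent experiments.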

[1] = system: Pseudomonas aeruginosa PA14; assay: as above; assay type: cell-based
Description: (§1) Evaluation of the biofilm inhibitory activity of some substituted 2-amino-1H-imidazoles of the invention was carried out by growing up biofilms of S. Typhimurium ATCC14028 or SL1344 or Pseudomonas aeruginosa PA14 in the presence of different concentrations (1/2 dilution series) of biofilm inhibitors, by using the Calgary biofilm device. After an incubation period of 24 hours at 25° C. or 37° C. or 48 hours at 16° C. the biofilms were visualized by crystal violet staining. In the next step the stain was extracted from the biofilm with 30% acetic acid. The absorbance of the resolubilized stain at 570 nm is a measure of the amount of biofilm formed.
The device used for Pseudomonas aeruginosa biofilm formation is the same platform carrying polystyrene pegs as described above for Salmonella Typhimurium.
Two-fold serial dilutions of the compounds in 100 μl liquid broth per well were prepared in the microtiter plate. Subsequently, an overnight culture of P. aeruginosa PA14 (grown up in TSB medium) was diluted 1:100 into liquid broth and 100 μl was added to each well of the microtiter plates, resulting in a total amount of 200 μl medium per well. The pegged lid was placed on the microtiter plate and the plate was incubated for 24 hours at 25° C., 30° C. or 37° C. without shaking. During this incubation period biofilms were formed on the surface of the pegs. The liquid broth used for the tests at 25° C. was TSB 1/20. The tests at 37° C. were performed in CFA and/or LBNS broth. During incubation at 30° C. and 37° C. the plates were placed in a humidity controlled container to prevent evaporation of the growth medium. Quantification of biofilm formation was performed similarly as described previously for the S. Typhimurium biofilm assays.
as §1, with “imidazo[1,2-a]pyrimidinium bromide salts” for “2-amino-1H-imidazoles”
as §1, with “substituted imidazo[1,2-a]-pyrimidinium bromide and perchlorate salts produced according to examples 3 and 5” for “substituted 2-amino-1H-imidazoles of the invention”, “C.” for “C. or 37° C. or 48 hours at 16° C.”, “nm was taken as” for “nm is”

[2] = 25° C., 24 hours, Table 15, read-out: (1) IC50 (biofilm inhibition)
[3] = 25° C., Table 18, read-out: S. Typhimurium IC50 (biofilm formation)
[4] = 25° C., 24 hours, Table 15, read-out: (2) IC50 (biofilm inhibition)
[5] = 25° C., Table 18, read-out: P. aeruginosa IC50 (biofilm formation)
[6] = S. Typhimurium ATCC 14028, 25° C., read-out: S. Typhimurium IC50 (biofilm formation)
[7] = P. aeruginosa PA14, 25° C., read-out: P. aeruginosa IC50 (biofilm formation)

| Compound | IC50 (S. Typhimurium ATCC14028; [2]) [µM] | IC50 (S. Typhimurium ATCC14028; [3]) [µM] | IC50 [1, 4] [µM] | IC50 [1, 5] [µM] | IC50 (S. Typhimurium ATCC14028; [6]) [µM] | IC50 [1, 7] [µM] |
| --- | --- | --- | --- | --- | --- | --- |
| OC1(c2ccc(Cl)cc2)C[n+]2cccnc2N1C1CCCCCC1 (centres unmarked) [Compound 65] | 27.9 | 27.9 | 63.8 | 76.2 |  |  |
| OC1(c2ccc(Cl)cc2)C[n+]2cccnc2N1C1CCCCCCC1 (centres unmarked) [Compound 66] | 12.6 | 12.6 | 15.6 | 22.7 |  |  |
| OC1(c2ccc(Cl)cc2)C[n+]2cccnc2N1C1CCCCCCCCCCC1 (centres unmarked) [Compound 67] |  | 5.6 |  | 6.8 |  |  |
| Nc1nc(-c2ccccc2)c[nH]1 [Compound 81] |  |  |  |  | 130 | 72.6 |
| CC(C)Nc1nc(-c2ccccc2)c[nH]1 [Compound 82] |  |  |  |  | > 800 | 261 |
| CCCCNc1nc(-c2ccccc2)c[nH]1 [Compound 83] |  |  |  |  | 25.3 | 31.8 |
| CC(C)CNc1nc(-c2ccccc2)c[nH]1 [Compound 84] |  |  |  |  | 4.9 | 1.2 |
| Nc1nc(-c2ccc(Cl)cc2)c[nH]1 [Compound 85] |  |  |  |  | 16 | 3.5 |
| CC(C)CNc1nc(-c2ccc(Cl)cc2)c[nH]1 [Compound 86] |  |  |  |  | 2 | 0.9 |
| CCCCCNc1nc(-c2ccc(Cl)cc2)c[nH]1 [Compound 87] |  |  |  |  | > 400 | ~6.35 |
| CCCCCCCCNc1nc(-c2ccc(Cl)cc2)c[nH]1 [Compound 88] |  |  |  |  | > 400 | ~1.6 |
| CNc1nc(-c2ccc([N+](=O)[O-])cc2)c[nH]1 [Compound 91] |  |  |  |  | 170 | 56.1 |
| CCNc1ncc(-c2ccc([N+](=O)[O-])cc2)[nH]1 [Compound 92] |  |  |  |  | 171 | 104 |
| CCCCNc1ncc(-c2ccc([N+](=O)[O-])cc2)[nH]1 [Compound 93] |  |  |  |  | 702 | > 800 |
| CC(C)CNc1ncc(-c2ccc([N+](=O)[O-])cc2)[nH]1 [Compound 94] |  |  |  |  | 3.8 | 22.9 |
| CCCCCCCCNc1ncc(-c2ccc([N+](=O)[O-])cc2)[nH]1 [Compound 95] |  |  |  |  | 10.9 | ~25 |
| Nc1ncc(-c2ccc(F)cc2)[nH]1 [Compound 96] |  |  |  |  | 84.4 | 15 |
| CNc1ncc(-c2ccc(F)cc2)[nH]1 [Compound 97] |  |  |  |  | 102 | 25.2 |
| CCCCNc1ncc(-c2ccc(F)cc2)[nH]1 [Compound 98] |  |  |  |  | 15.5 | 10.8 |
| CCCCCCNc1ncc(-c2ccc(F)cc2)[nH]1 [Compound 99] |  |  |  |  | > 400 | ~12.5 |
| CCCCCCCCNc1ncc(-c2ccc(F)cc2)[nH]1 [Compound 100] |  |  |  |  | > 400 | ~3.1 |
| Nc1ncc(-c2ccc(Br)cc2)[nH]1 [Compound 101] |  |  |  |  | 47.9 | 3.2 |
| CCCCNc1ncc(-c2ccc(Br)cc2)[nH]1 [Compound 102] |  |  |  |  | 7.1 | 9.8 |
